The test addresses T1, human PPAR alpha (Homo sapiens, UniProt Q07869).
T1 sequence (Q07869 1-468): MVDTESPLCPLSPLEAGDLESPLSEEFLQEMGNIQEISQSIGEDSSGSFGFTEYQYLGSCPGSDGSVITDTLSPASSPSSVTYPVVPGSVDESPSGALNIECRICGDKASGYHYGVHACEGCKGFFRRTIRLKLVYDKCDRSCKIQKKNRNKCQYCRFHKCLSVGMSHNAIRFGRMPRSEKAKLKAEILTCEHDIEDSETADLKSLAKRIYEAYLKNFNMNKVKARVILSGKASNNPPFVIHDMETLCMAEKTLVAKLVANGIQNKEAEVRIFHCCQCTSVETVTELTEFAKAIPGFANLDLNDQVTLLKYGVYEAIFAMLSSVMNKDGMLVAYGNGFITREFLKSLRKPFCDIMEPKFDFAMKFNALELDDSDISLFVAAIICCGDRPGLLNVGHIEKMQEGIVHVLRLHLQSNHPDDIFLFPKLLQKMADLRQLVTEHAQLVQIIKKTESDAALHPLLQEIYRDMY
Briefly: PPAR alpha assay as described in WO03/051821. Format: cell-based. As to conditions: assay described in WO03/051821 (incorporated by reference). How it is done:
The compounds of the invention were tested in the assays described in WO03/051821 which is incorporated herein by reference.

By EC50 is commonly meant the concentration at which the effect is half-maximal. As for `O=C(c1ccccc1)c1ccc(OCCc2ccc(CC(SCCc3ccc(O)cc3)C(=O)O)cc2)cc1` (stereo not shown) [Example 7, 3-{4-[2-(4-Benzoylphenoxy)ethyl]phenyl}-2-{[2-(4-hydroxyphenyl)ethyl]thio}propanoic acid], a half-maximal effect (EC50) was put at 780 nM.

The record behind these values is patent US20060199857A1, “Therapeutic agents” (ASTRAZENECA UK LIMITED, priority 2003, published 2006).
